Measurements as given in ChEMBL document CHEMBL5244281, “Tackling multidrug-resistant Staphylococcus aureus by natural products and their analogues acting as NorA efflux pump inhibitors” (Bioorg Med Chem, 2023).
Values after ≈ are worked out from the molar mass of the structure shown.

What was measured:
Staphylococcus aureus [1] = assay: Synergistic antimicrobial activity against Staphylococcus aureus 1199B overexpressing NorA efflux pump assessed as reduction in norfloxacin MIC incubated for 24 hrs by MTT colorimetric assay (Rvb= […]); format: functional
Staphylococcus aureus [2] = assay: Synergistic antimicrobial activity against Staphylococcus aureus 1199B overexpressing NorA efflux pump assessed as fractional inhibitory concentration index incubated for 24 hrs by checkerboard method; format: functional
Staphylococcus aureus [3] = assay: Antibacterial activity against norfloxacin resistant Staphylococcus aureus 1199B overexpressing NorA assessed as bacterial growth inhibition incubated for 24 hrs by resazurin based microdilution assay; format: functional
Staphylococcus aureus [4] = assay: Antibacterial activity against Staphylococcus aureus 1199B overexpressing NorA assessed as bacterial growth inhibition incubated for 18 hrs by MTT assay; format: functional
Staphylococcus aureus [5] = assay: Antibacterial activity against tetracycline-resistant Staphylococcus aureus XU212 assessed as bacterial growth inhibition incubated for 18 hrs by MTT assay; format: functional
Staphylococcus aureus [6] = assay: Antibacterial activity against Staphylococcus aureus ATCC25923 assessed as bacterial growth inhibition incubated for 18 hrs by MTT assay; format: functional
Staphylococcus aureus [7] = assay: Antibacterial activity against Staphylococcus aureus RN4220 assessed as bacterial growth inhibition incubated for 18 hrs by MTT assay; format: functional
Staphylococcus aureus [8] = assay: Antibacterial activity against Staphylococcus aureus EMRSA-15 assessed as bacterial growth inhibition incubated for 18 hrs by MTT assay; format: functional
Staphylococcus aureus [9] = assay: Antibacterial activity against Staphylococcus aureus 1199B expressing NorA efflux protein assessed as bacterial growth inhibition incubated for 24 hrs by resazurin based microdilution assay; format: functional
Staphylococcus aureus [10] = assay: Antibacterial activity against wild type Staphylococcus aureus 1199 assessed as bacterial growth inhibition incubated for 24 hrs by resazurin based microdilution assay; format: functional
[11] = biological target: T1, Quinolone resistance protein NorA (Staphylococcus aureus) (UniProt P0A0J7); assay: Inhibition of NorA efflux pump in Staphylococcus aureus 1199B overexpressing NorA efflux pump assessed as norfloxacin MIC at 1/8 times of MIC using norfloxacin as substrate incubated for 24 hrs by resazurin based assay (Rvb= 406.37 ug/ml)
T1 sequence (whole entry): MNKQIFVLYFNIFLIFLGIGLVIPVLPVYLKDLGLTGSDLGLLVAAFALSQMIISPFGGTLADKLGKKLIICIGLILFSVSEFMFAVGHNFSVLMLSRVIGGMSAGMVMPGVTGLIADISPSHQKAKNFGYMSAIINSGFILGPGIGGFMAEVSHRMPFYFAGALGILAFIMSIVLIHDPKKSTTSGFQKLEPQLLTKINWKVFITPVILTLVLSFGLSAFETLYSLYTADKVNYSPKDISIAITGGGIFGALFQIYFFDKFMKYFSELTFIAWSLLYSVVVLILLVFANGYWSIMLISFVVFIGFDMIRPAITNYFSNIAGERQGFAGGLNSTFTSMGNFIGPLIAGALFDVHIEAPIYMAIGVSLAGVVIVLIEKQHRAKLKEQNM

[12] = biological target: T1, Quinolone resistance protein NorA (Staphylococcus aureus); assay: Inhibition of NorA efflux pump in Staphylococcus aureus 1199 assessed as norfloxacin MIC at 1/8 times of MIC using norfloxacin as substrate incubated for 24 hrs by resazurin based assay (Rvb= 32 ug/ml)
[13] = biological target: T1, Quinolone resistance protein NorA (Staphylococcus aureus); assay: Inhibition of NorA efflux pump in Staphylococcus aureus 1199B overexpressing NorA efflux pump assessed as EtBr MIC at 1/8 times of MIC using EtBr as substrate incubated for 24 hrs by resazurin based assay (Rvb= 256 ug/ml)
[14] = biological target: T1, Quinolone resistance protein NorA (Staphylococcus aureus); assay: Inhibition of NorA efflux pump in Staphylococcus aureus 1199 assessed as EtBr MIC at 1/8 times of MIC using EtBr as substrate incubated for 24 hrs by resazurin based assay (Rvb= 256 ug/ml)
[15] = biological target: T1, Quinolone resistance protein NorA (Staphylococcus aureus); assay: Modulation of norfloxacin-induced inhibition of NorA efflux pump in Staphylococcus aureus 1199B overexpressing NorA efflux pump assessed as reduction in norfloxacin MIC at 1/4 times of MIC by resazurin based assay
Staphylococcus aureus [16] = assay: Antibacterial activity against norfloxacin resistant Staphylococcus aureus IS-58 overexpressing TetK efflux pump gene assessed as bacterial growth inhibition incubated for 18 to 24 hrs by NCCLS protocol based microdilution method; format: functional; conditions: time 18-24 hrs
Staphylococcus aureus [17] = assay: Antibacterial activity against norfloxacin resistant Staphylococcus aureus RN4220 overexpressing MsrA efflux pump gene assessed as bacterial growth inhibition incubated for 18 to 24 hrs by NCCLS protocol based microdilution method; format: functional; conditions: time 18-24 hrs
Staphylococcus aureus [18] = assay: Antibacterial activity against norfloxacin resistant Staphylococcus aureus 1199B overexpressing NorA efflux pump gene assessed as bacterial growth inhibition incubated for 18 to 24 hrs by NCCLS protocol based microdilution method; format: functional; conditions: time 18-24 hrs
Staphylococcus aureus [19] = assay: Antibacterial activity against methicillin-resistant Staphylococcus aureus 1199B overexpressing NorA gene assessed as bacterial growth inhibition; format: functional
Staphylococcus aureus [20] = assay: Antibacterial activity against norfloxacin resistant Staphylococcus aureus 1199 assessed as bacterial growth inhibition incubated for 24 hrs by resazurin based broth microdilution method; format: functional
Staphylococcus aureus [21] = assay: Antibacterial activity against norfloxacin resistant Staphylococcus aureus 1199B overexpressing NorA assessed as bacterial growth inhibition incubated for 24 hrs by resazurin based broth microdilution method; format: functional
[22] = biological target: T1, Quinolone resistance protein NorA (Staphylococcus aureus); assay: Potentiation of norfloxacin-induced inhibition of NorA efflux pump in Staphylococcus aureus 1199A assessed as reduction in norfloxacin MIC at 1/8 times of MIC incubated for 24 hrs by resazurin based broth microdilution method (Rvb= […] ug/ml)
[23] = biological target: T1, Quinolone resistance protein NorA (Staphylococcus aureus); assay: Potentiation of norfloxacin-induced inhibition of NorA efflux pump in Staphylococcus aureus 1199B overexpressing NorA efflux pump assessed as reduction in norfloxacin MIC at 1/8 times of MIC incubated for 24 hrs by resazurin based broth microdilution method (Rvb= 128 ug/ml)
[24] = biological target: T1, Quinolone resistance protein NorA (Staphylococcus aureus); assay: Potentiation of EtBr-induced inhibition of NorA efflux pump in Staphylococcus aureus 1199A assessed as reduction in EtBr MIC at 1/8 times of MIC incubated for 24 hrs by resazurin based broth microdilution method (Rvb=32 ug/ml)
[25] = biological target: T1, Quinolone resistance protein NorA (Staphylococcus aureus); assay: Potentiation of EtBr-induced inhibition of NorA efflux pump in Staphylococcus aureus 1199B overexpressing NorA efflux pump assessed as reduction in EtBr MIC at 1/8 times of MIC incubated for 24 hrs by resazurin based broth microdilution method (Rvb= 32 ug/ml)
Staphylococcus aureus [26] = assay: Antibacterial activity against wild type Staphylococcus aureus ATCC 25923 assessed as bacterial growth inhibition incubated for 24 hrs by resazurin based microdilution assay; format: functional
Staphylococcus aureus [27] = assay: Antibacterial activity against Staphylococcus aureus IS-58 overexpressing TetK efflux protein assessed as bacterial growth inhibition incubated for 24 hrs by resazurin based microdilution assay; format: functional
Staphylococcus aureus [28] = assay: Antibacterial activity against Staphylococcus aureus RN4220 overexpressing […] efflux protein assessed as bacterial growth inhibition incubated for 24 hrs by resazurin based microdilution assay; format: functional
Staphylococcus aureus [29] = assay: Antibacterial activity against Staphylococcus aureus 1199B overexpressing NorA efflux protein assessed as bacterial growth inhibition incubated for 24 hrs by resazurin based microdilution assay; format: functional
Staphylococcus aureus [30] = assay: Antibacterial activity against Staphylococcus aureus K2068 overexpressing mepA gene assessed as bacterial growth inhibition incubated for 24 hrs by resazurin based microdilution assay; format: functional
Staphylococcus aureus [31] = assay: Antibacterial activity against Staphylococcus aureus K4414 overexpressing qacA/B gene assessed as bacterial growth inhibition incubated for 24 hrs by resazurin based microdilution assay; format: functional
Staphylococcus aureus [32] = assay: Antibacterial activity against Staphylococcus aureus K4100 overexpressing qacC gene assessed as bacterial growth inhibition incubated for 24 hrs by resazurin based microdilution assay; format: functional
[33] = biological target: T1, Quinolone resistance protein NorA (Staphylococcus aureus); assay: Modulation of EtBr -induced inhibition of NorA efflux pump in Staphylococcus aureus 1199B overexpressing NorA efflux pump assessed as reduction in EtBr MIC at 1/4 times of MIC using EtBr as substrate by resazurin based assay

With C/C=C/c1cc(OC)c2c(c1)[C@H](C)[C@@H](c1ccc(OC)c(OC)c1)O2 the MIC (Staphylococcus aureus [1]) was 8 µg/mL and the “fractional inhibitory concentration index (FICI)” value (Staphylococcus aureus [2]) was 0.13.
For CC[n+]1c(-c2ccccc2)c2cc(N)ccc2c2ccc(N)cc21.[Br-] [HOMIDIUM BROMIDE], the MIC (Staphylococcus aureus [3]) was 32 µg/mL.
For COc1ccc(-c2coc3cc(O)cc(O)c3c2=O)cc1O [PRATENSEIN], the MIC (Staphylococcus aureus [4]) was 32 µg/mL (≈ 107 µM), the MIC (Staphylococcus aureus [5]) was 32 µg/mL (≈ 107 µM) and the MIC (Staphylococcus aureus [6]) was 32 µg/mL (≈ 107 µM). It also gave an MIC (Staphylococcus aureus [7]) of 32 µg/mL (≈ 107 µM) and an MIC (Staphylococcus aureus [8]) of 32 µg/mL (≈ 107 µM).
Work on CC(C)=CC1=C(NCCO)C(=O)c2ccccc2C1=O yielded an MIC (Staphylococcus aureus [9]) of at least 1020 µg/mL, an MIC (Staphylococcus aureus [10]) of at least 1020 µg/mL and an MIC [11] of 50.8 µg/mL. For the same compound, the MIC [12] was 2.51 µg/mL, the MIC [13] was 128 µg/mL and the MIC [14] was 32 µg/mL.
Work on C[C@@H]1O[C@@H](Oc2c(-c3cc(O)c(O)c(O)c3)oc3cc(O)cc(O)c3c2=O)[C@H](O)[C@H](O)[C@H]1O yielded an MIC [15] of 32 µg/mL.
For CC(C)=CCC1=C(NCCCO)C(=O)c2ccccc2C1=O, the MIC (Staphylococcus aureus [9]) was at least 1020 µg/mL, the MIC (Staphylococcus aureus [10]) was at least 1020 µg/mL and the MIC [11] was 102 µg/mL. The MIC [12] was 4 µg/mL, the MIC [13] was 64 µg/mL and the MIC [14] was 32 µg/mL.
CC(C)=CCOc1c2occc2cc2ccc(=O)oc12 [PENTOSALEN] showed an MIC (Staphylococcus aureus [16]) of over 256 µg/mL, an MIC (Staphylococcus aureus [17]) of over 256 µg/mL and an MIC (Staphylococcus aureus [18]) of over 256 µg/mL.
COc1cc(O)c2c(=O)c(OC)c(-c3ccc(O)c(OC)c3)oc2c1 [PACHYPODOL] gave an MIC (Staphylococcus aureus [19]) of 256 µg/mL (≈ 743 µM).
For COc1ccc(-c2oc3cc(OC)c(OC)c(O)c3c(=O)c2OC)cc1OC [ARTEMETIN], the MIC (Staphylococcus aureus [19]) was 256 µg/mL (≈ 659 µM).
Work on CC1(C)C=Cc2c(cc3occ(-c4ccc(O)cc4)c(=O)c3c2O)O1 [ALPINUMISOFLAVONE] yielded an MIC (Staphylococcus aureus [4]) of 32 µg/mL (≈ 95.1 µM), an MIC (Staphylococcus aureus [5]) of 32 µg/mL (≈ 95.1 µM) and an MIC (Staphylococcus aureus [6]) of 32 µg/mL (≈ 95.1 µM). It also gave an MIC (Staphylococcus aureus [7]) of 32 µg/mL (≈ 95.1 µM) and an MIC (Staphylococcus aureus [8]) of 32 µg/mL (≈ 95.1 µM).
With Cc1ccc(C(C)C)cc1O [CARVACROL] the MIC (Staphylococcus aureus [20]) was 256 µg/mL (≈ 1700 µM), the MIC (Staphylococcus aureus [21]) was 256 µg/mL (≈ 1700 µM) and the MIC [22] was 32 µg/mL. The MIC [23] was 64 µg/mL, the MIC [24] was 25.4 µg/mL and the MIC [25] was 16 µg/mL.
COc1c2occc2cc2ccc(=O)oc12 [METHOXSALEN] showed an MIC (Staphylococcus aureus [16]) of over 256 µg/mL, an MIC (Staphylococcus aureus [17]) of over 256 µg/mL and an MIC (Staphylococcus aureus [18]) of over 256 µg/mL.
Work on COc1ccc(/C=C/C(=O)c2ccc(O)cc2)cc1OC yielded an MIC (Staphylococcus aureus [26]) of 100 µg/mL (≈ 352 µM), an MIC (Staphylococcus aureus [27]) of 100 µg/mL (≈ 352 µM) and an MIC (Staphylococcus aureus [28]) of 100 µg/mL (≈ 352 µM). It also gave an MIC (Staphylococcus aureus [29]) of 100 µg/mL (≈ 352 µM), an MIC (Staphylococcus aureus [30]) of 100 µg/mL (≈ 352 µM) and an MIC (Staphylococcus aureus [31]) of 100 µg/mL (≈ 352 µM). The MIC (Staphylococcus aureus [32]) was 100 µg/mL (≈ 352 µM).
For O=C(OC[C@]1(O)[C@H](OC(=O)c2ccccc2)C=C[C@@H](OC(=O)c2ccccc2)[C@@H]1O)c1ccccc1, the MIC (Staphylococcus aureus [1]) was 32 µg/mL and the “fractional inhibitory concentration index (FICI)” value (Staphylococcus aureus [2]) was 0.52.
COc1ccc(-c2cc(=O)c3ccc(O)cc3o2)cc1O gave an MIC (Staphylococcus aureus [4]) of 32 µg/mL (≈ 113 µM), an MIC (Staphylococcus aureus [5]) of 32 µg/mL (≈ 113 µM) and an MIC (Staphylococcus aureus [6]) of 32 µg/mL (≈ 113 µM). For the same compound, the MIC (Staphylococcus aureus [7]) was 32 µg/mL (≈ 113 µM) and the MIC (Staphylococcus aureus [8]) was 32 µg/mL (≈ 113 µM).
With COc1ccc([C@@H]2CC(=O)c3c(O)cc(O)cc3O2)cc1O the MIC [15] was 8 µg/mL and the MIC [33] was 16 µg/mL.
With COC(=O)c1cc(/C=C/C(=O)c2cccc(O)c2)ccc1OC the MIC (Staphylococcus aureus [26]) was 100 µg/mL (≈ 320 µM), the MIC (Staphylococcus aureus [27]) was 100 µg/mL (≈ 320 µM) and the MIC (Staphylococcus aureus [28]) was 100 µg/mL (≈ 320 µM). The MIC (Staphylococcus aureus [29]) was 100 µg/mL (≈ 320 µM), the MIC (Staphylococcus aureus [30]) was 100 µg/mL (≈ 320 µM) and the MIC (Staphylococcus aureus [31]) was 100 µg/mL (≈ 320 µM). It also gave an MIC (Staphylococcus aureus [32]) of 100 µg/mL (≈ 320 µM).
